Test results published in article PMC10994559 (PLOS Neglected Tropical Diseases, 2024).
Read-outs that look alike come from different tables or passages of the source.

Experiments:
[1] = test system: L. major promastigotes; experiment: L. major promastigote viability, resazurin reduction; assay type: cell-based, Leishmania major; settings: Leishmania major, read-out: viability, L.major promastigote (25 µM)
Source text: (§1) The infectivity of the parasites was boosted by passaging in Balb/c mice and culturing the infected lymph nodes after six weeks. L. infantum (MHOM / BR / 76 / M4192) parasite was passaged in the same media formulation with 0.5% urine.

[2] = test system: L. infantum promastigotes; experiment: L. infantum promastigote viability, resazurin reduction; assay type: cell-based, Leishmania infantum; settings: Leishmania infantum, sheet LTC_compound_viability, value ± spread; for viability at 2.5 µM: read-out: viability, L. infantum promastigote (2.5 µM); for viability at 25 µM: read-out: viability, L. infantum promastigote (25 µM)
Source text: as §1

[3] = test system: L. major axenic amastigotes; experiment: L. major axenic amastigote viability, resazurin reduction; settings: Leishmania major; for viability at 25 µM: read-out: viability, L.major amastigote (25 µM)
Description: L. major LV561(MHOM/IL/67/LRC-L137 JERICHO II) amastigotes were passaged in Grace insect medium supplemented with NaHCO3, 0.1% amikin and 20% of FCS (pH: 5.4) and kept at 33°C.
Exponential growth phase promastigotes of L. major or L. infantum and axenic amastigotes (L. major) were harvested and seeded in 384 well plates (white, non-transparent, tissue culture treated, flat bottom; Corning) (0.5x10^5 cells per well). Compounds were pre-dispensed into the plate with an Echo 650 acoustic dispenser (Beckman Coulter). After 72h incubation, resazurin was added (1:10 v/v) from a […] stock in PBS, followed by incubation for six hours. Then, fluorescence intensity was measured using a microplate reader (Synergy H1, BioTek) with excitation filter: 550 nm and emission filter: 590 nm. Efficient compounds were selected for the next round of viability assay with 2.5 μM concentrations of the compounds. […] All experiments were performed with AmB as a positive control drug in parallel.
Axenic amastigotes, the relevant form that persists in the infected host, were generated in the lab through established procedures, employing harsh pH (pH 5) and high temperature (33°C) conditions.

[4] = test system: T. brucei brucei BSF; experiment: T. brucei BSF viability, resazurin reduction; assay type: cell-based, Trypanosoma brucei brucei; settings: Trypanosoma brucei; for viability at 25 µM: read-out: viability, T.brucei (25 µM)
Description: T. brucei brucei (strain 427 Lister) blood stream form (BSF) parasites were passaged in complete HMI-9 media supplemented with 10% FCS, Pen-Strep (0.1%) and 2-mercaptoethanol (0.014 v/v) and kept in a 37° C CO2 incubator in filter-cap flasks.
(§2) Viability of T. brucei brucei BSF and T. cruzi trypomastigotes was assayed with fluorescence resazurin reduction assay, essentially as described above. […] Next, selected compounds were tested at 2.5 μM concentration, and promising compounds subjected to 18 concentrations dose response analyses. AN3057 and AmB were used as a control drug in T. brucei and T. cruzi, respectively.

[5] = test system: T. cruzi trypomastigotes; experiment: T. cruzi viability, resazurin reduction; assay type: cell-based, Trypanosoma cruzi; settings: Trypanosoma cruzi; for viability at 2.5 µM: read-out: viability, T.cruzi (2.5 µM); for viability at 25 µM: read-out: viability, T.cruzi (25 µM)
Description: T. cruzi (Y strain) trypomastigotes were passaged in liver infusion broth media supplemented with tryptose, NaCl, Na2HPO4, KCl, glucose, hemin, Pen-Strep (1%), 10% FCS (pH: 7.2) and kept at 28°C.
as §2

[6] = test system: E. histolytica; experiment: E. histolytica viability, ATP luminescence (Cell titer glo); assay type: cell-based, Entamoeba histolytica; settings: Entamoeba histolytica; for viability at 2.5 µM: read-out: viability, E.histolytica (2.5 µM); for viability at 25 µM: read-out: viability, E.histolytica (25 µM)
How it was run: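 E. histolytica strain B2-5 at 2.5x10^4 cells/ml was exposed to compound for 48 h at 37 °C under anaerobic conditions, with viability read as ATP luminescence (CellTiter-Glo). The primary screen used 25 μM in triplicate, and follow-up potency runs used 9–16-point ranges spanning 0.01–100 μM.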

[7] = Cytotoxicity assay J774, resazurin reduction; assay type: cell-based, murine; settings: mouse, J774 macrophage cells; for viability at 72 h, 2.5 µM: read-out: viability, J774 (2.5 µM); for viability at 72 h, 25 µM: read-out: viability, J774 (25 µM)
Description: Mammalian cell lines (J774 and HepG2) were passaged in RPMI media supplemented with MEM, Pen-Strep (1%) and 10% FCS. Cultures were kept at 37°C incubator with 5% CO2 in filter-cap flasks.
Murine macrophage cells (J774) and human hepatocyte carcinoma HepG2 cells were seeded at 0.5x10^5 cell/well in 384 well plates in triplicate, exposed to serial dilution of compounds, dispensed using an Echo 650 acoustic dispenser (Labcyte). After incubation for 72 h at 37°C, 5% CO2, cell viability was determined using fluorescence resazurin reduction assay (λEx: 550 nm; λEm: 590 nm).

[8] = test system: intracellular L. infantum amastigotes; experiment: Parasite rescue assay (intramacrophage, J774 infected with L. infantum); assay type: cell-based, Leishmania infantum; settings: J774, 25 µM; intracellular amastigote; read-out: viability, intracellular L. major amastigote (25 µM)
[9] = 2.5 µM, read-out: viability, T.brucei (2.5 µM)
[10] = 72 h, read-out: Residual viability, T.brucei (2.5 µM), BSF, 2.5 µM, 72 h

Compound	viability at 25 µM ([1]; 72 h)	viability at 25 µM ([1]; 25 µM)	viability at 2.5 µM [2]	viability at 25 µM [2]	viability at 25 µM [3]	viability at 2.5 µM [4, 9]	viability at 25 µM [4]	viability at 2.5 µM [4, 10]	viability at 2.5 µM [5]	viability at 25 µM [5]	viability at 2.5 µM [6]	viability at 25 µM [6]	viability at 72 h, 2.5 µM [7]	viability at 72 h, 25 µM [7]	melting point	viability at 25 µM [8]	viability at 2.5 µM ([3]; read-out: viability, L.major amastigote(2.5 µM))
N[C@@H](Cc1ccccc1)[C@@H](O)CNc1ccc(F)cc1F [LTC-1032, (2S,3S)-3-Amino-1-((2,4-difluorophenyl)amino)-4-phenylbutan-2-ol]	86.3 ± 2.23%	0.57 ± 0.34%	84.1 ± 3.01%	9.17 ± 0.49%	76 ± 0.96%	-0.94 ± 0.33%	2.18 ± 0.88%	< 10%	59.8 ± 1.24%	29 ± 1.22%	56.3 ± 3.32%	118 ± 17.6%	96.3 ± 3.07%	96.6 ± 11.9%	89 to 91 °C	73 ± 5.58%	–
Cc1ccc(NC[C@H](O)[C@@H](N)Cc2ccccc2)cc1 [LTC-1043, (2S,3S)-3-Amino-4-phenyl-1-(p-tolylamino)butan-2-ol]	83.4 ± 5.16%	22.1 ± 5%	71.6 ± 5.44%	16.9 ± 2.12%	22.1 ± 2.55%	80.6 ± 2.56%	2.22 ± 1.09%	–	61.9 ± 0.89%	31.9 ± 1.78%	74.3 ± 21.6%	97.3 ± 19.4%	95.7 ± 7.77%	93.5 ± 8.83%	57 to 59 °C	63.4 ± 7.61%	76.2 ± 2.46%
N[C@@H](Cc1ccccc1)[C@@H](O)CNc1ccc(OC(F)(F)F)cc1 [LTC-1028, (2S,3S)-3-Amino-4-phenyl-1-((4-(trifluoromethoxy)phenyl)amino)butan-2-ol]	81.6 ± 2%	0.32 ± 0.34%	78.3 ± 1.53%	0.58 ± 0.24%	59.3 ± 3.42%	19.7 ± 4.81%	2.01 ± 0.92%	–	61 ± 0.78%	12.4 ± 0.9%	71.9 ± 4.72%	37.8 ± 19.9%	97.4 ± 5.26%	-0.47 ± 0.78%	112 to 114 °C	79.1 ± 22%	–
N[C@@H](Cc1ccccc1)[C@@H](O)CNc1cccc(C(F)(F)F)c1 [LTC-1029, (2S,3S)-3-Amino-4-phenyl-1-((3-(trifluoromethyl)phenyl)amino)butan-2-ol]	88.9 ± 5.45%	-0.13 ± 0.19%	82.2 ± 2.25%	0.37 ± 0.05%	67.9 ± 2.07%	-0.97 ± 0.28%	2.21 ± 0.85%	< 10%	56.8 ± 2.34%	6.68 ± 2.95%	70.3 ± 18.1%	15.4 ± 5.25%	94.9 ± 4.03%	91.9 ± 10.1%	72 to 74 °C	76.8 ± 12.2%	–
CC(=O)c1ccc(NC[C@H](O)[C@@H](N)Cc2ccccc2)cc1 [LTC-1031, 1-(4-(((2S,3S)-3-Amino-2-hydroxy-4-phenylbutyl)amino)phenyl)ethan-1-one]	91.6 ± 2.08%	62.7 ± 3.51%	83.7 ± 2.96%	44.9 ± 6.2%	70.9 ± 2.23%	75.5 ± 4.37%	2.18 ± 0.95%	–	58.4 ± 1.11%	59.3 ± 2.74%	74.1 ± 12.7%	105 ± 18.2%	95.4 ± 4.41%	-0.69 ± 0.73%	123 to 125 °C	98 ± 5.56%	–
Cc1cccc(C)c1NC[C@H](O)[C@@H](N)Cc1ccccc1 [LTC-1041, (2S,3S)-3-Amino-1-((2,6-dimethylphenyl)amino)-4-phenylbutan-2-ol]	88 ± 2.36%	15.5 ± 3.29%	47.1 ± 4.67%	20.3 ± 4.1%	73.8 ± 2.47%	70.5 ± 3.15%	2.06 ± 1.4%	–	60 ± 3.23%	57.2 ± 4.4%	85.2 ± 16.3%	128 ± 30.1%	100 ± 2.23%	85.1 ± 13.9%	63 to 65 °C	71.6 ± 22.8%	–
N[C@@H](Cc1ccccc1)[C@@H](O)CNc1ccc(C(F)(F)F)cc1 [LTC-1027, (2S,3S)-3-Amino-4-phenyl-1-((4-(trifluoromethyl)phenyl)amino)butan-2-ol]	72.2 ± 16.2%	-0.24 ± 0.15%	77.9 ± 1.82%	0.64 ± 0.3%	75.5 ± 3.25%	11.2 ± 1.8%	2.27 ± 0.89%	–	61.8 ± 2.34%	12 ± 0.47%	79.1 ± 9.1%	2.09 ± 3.63%	96.1 ± 4.11%	99.9 ± 8.05%	105 to 107 °C	79.3 ± 16.4%	–
